{"source": "paper PMC6390583", "about": "(BMC rheumatology, 2018)", "key": {"[1]": {"biological_target": "IGF1R (Homo sapiens, UniProt P08069)", "assay": "trFRET binding kinome profiling", "description": "(§1) JAK activity assays using isolated kinase domains in the presence of 0.1 mM ATP and trFRET kinome profiling were conducted as described previously (17)."}, "[2]": {"biological_target": "MEK2 (Homo sapiens, UniProt P36507)", "assay": "trFRET binding kinome profiling", "description": "as §1"}, "[3]": {"biological_target": "Rock2 (Homo sapiens, UniProt O75116)", "assay": "trFRET binding kinome profiling", "description": "as §1"}, "[4]": {"biological_target": "BRAF (Homo sapiens, UniProt P15056)", "sequence (P15056 whole entry, species assumed)": "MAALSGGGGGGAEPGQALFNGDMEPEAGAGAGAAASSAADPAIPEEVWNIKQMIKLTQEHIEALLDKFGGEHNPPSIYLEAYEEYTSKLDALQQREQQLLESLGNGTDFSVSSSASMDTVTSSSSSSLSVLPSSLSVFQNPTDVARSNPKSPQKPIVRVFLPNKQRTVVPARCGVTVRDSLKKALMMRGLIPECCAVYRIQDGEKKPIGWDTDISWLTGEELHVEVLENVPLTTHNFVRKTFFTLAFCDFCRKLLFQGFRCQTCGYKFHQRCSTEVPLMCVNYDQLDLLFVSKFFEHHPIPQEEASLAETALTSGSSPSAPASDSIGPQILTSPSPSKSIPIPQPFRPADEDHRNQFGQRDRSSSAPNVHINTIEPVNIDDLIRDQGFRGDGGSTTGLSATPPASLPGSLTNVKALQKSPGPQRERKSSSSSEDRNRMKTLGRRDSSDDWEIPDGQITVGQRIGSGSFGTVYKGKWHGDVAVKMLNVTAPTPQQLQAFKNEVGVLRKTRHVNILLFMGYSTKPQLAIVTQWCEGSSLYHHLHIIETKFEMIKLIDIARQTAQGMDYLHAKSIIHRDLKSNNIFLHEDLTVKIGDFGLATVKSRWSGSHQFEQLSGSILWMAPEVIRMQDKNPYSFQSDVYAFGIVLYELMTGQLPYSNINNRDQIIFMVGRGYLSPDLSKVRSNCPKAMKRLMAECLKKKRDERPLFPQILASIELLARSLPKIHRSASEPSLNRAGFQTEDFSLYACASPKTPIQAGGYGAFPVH", "assay": "trFRET binding kinome profiling", "description": "as §1"}, "[5]": {"biological_target": "CDK8/Cyclin C (Homo sapiens, UniProt P49336)", "sequence (P49336 whole entry, species assumed)": "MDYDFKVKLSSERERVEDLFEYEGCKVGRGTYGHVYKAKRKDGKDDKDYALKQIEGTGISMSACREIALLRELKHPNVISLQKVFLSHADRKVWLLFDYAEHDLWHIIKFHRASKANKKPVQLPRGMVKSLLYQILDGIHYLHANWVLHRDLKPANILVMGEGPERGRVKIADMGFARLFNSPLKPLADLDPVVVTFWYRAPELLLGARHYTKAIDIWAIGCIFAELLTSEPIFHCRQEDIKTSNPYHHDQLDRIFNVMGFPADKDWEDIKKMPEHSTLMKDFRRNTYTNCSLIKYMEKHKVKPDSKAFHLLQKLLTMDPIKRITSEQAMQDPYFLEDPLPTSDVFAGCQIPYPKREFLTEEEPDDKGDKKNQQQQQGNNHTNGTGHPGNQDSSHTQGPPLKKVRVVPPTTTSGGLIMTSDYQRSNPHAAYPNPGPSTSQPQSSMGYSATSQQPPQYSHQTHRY", "sequence (P24863 whole entry partner, species assumed)": "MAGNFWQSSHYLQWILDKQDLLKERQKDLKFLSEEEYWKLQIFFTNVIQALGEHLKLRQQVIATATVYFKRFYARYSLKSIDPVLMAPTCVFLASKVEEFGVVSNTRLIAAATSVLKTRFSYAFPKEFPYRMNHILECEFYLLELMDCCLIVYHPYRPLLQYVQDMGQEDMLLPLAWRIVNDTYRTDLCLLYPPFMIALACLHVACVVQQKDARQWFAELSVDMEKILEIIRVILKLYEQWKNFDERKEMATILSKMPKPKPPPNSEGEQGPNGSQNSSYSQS", "assay": "trFRET binding kinome profiling", "description": "as §1"}, "[6]": {"biological_target": "GRK5 (Homo sapiens, UniProt P34947)", "sequence (P34947 whole entry, species assumed)": "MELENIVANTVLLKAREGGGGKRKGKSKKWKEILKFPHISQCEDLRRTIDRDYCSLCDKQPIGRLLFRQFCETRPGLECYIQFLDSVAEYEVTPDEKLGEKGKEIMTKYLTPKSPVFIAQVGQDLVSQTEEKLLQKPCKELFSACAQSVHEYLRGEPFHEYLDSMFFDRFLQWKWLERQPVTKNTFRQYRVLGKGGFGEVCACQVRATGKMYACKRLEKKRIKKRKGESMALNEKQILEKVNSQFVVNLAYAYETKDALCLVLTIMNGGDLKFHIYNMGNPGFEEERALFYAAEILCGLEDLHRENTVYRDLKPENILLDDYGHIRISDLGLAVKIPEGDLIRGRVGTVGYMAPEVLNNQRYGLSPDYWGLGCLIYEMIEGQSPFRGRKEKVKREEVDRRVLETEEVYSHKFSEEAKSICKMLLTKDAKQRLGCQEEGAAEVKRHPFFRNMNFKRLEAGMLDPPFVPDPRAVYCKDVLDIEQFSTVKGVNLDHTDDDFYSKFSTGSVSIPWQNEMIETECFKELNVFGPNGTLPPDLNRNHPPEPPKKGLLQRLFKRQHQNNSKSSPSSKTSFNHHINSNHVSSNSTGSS", "assay": "trFRET binding kinome profiling", "description": "as §1"}, "[7]": {"biological_target": "TTK (Homo sapiens, UniProt P33981)", "assay": "trFRET binding kinome profiling", "description": "as §1"}, "[8]": {"biological_target": "CLK2 (Homo sapiens, UniProt P49760)", "assay": "trFRET binding kinome profiling", "description": "as §1"}, "[9]": {"biological_target": "PKG1A (Homo sapiens, UniProt Q13976)", "assay": "trFRET binding kinome profiling", "description": "as §1"}, "[10]": {"biological_target": "Ck1alpha1 (Homo sapiens, UniProt P48729)", "assay": "trFRET binding kinome profiling", "description": "as §1"}, "[11]": {"biological_target": "PKA (Homo sapiens, UniProt P17612)", "assay": "trFRET binding kinome profiling", "description": "as §1"}, "[12]": {"biological_target": "CDK7/Cyclin H/Mat1 (Homo sapiens, UniProt P50613)", "sequence (P50613 whole entry, species assumed)": "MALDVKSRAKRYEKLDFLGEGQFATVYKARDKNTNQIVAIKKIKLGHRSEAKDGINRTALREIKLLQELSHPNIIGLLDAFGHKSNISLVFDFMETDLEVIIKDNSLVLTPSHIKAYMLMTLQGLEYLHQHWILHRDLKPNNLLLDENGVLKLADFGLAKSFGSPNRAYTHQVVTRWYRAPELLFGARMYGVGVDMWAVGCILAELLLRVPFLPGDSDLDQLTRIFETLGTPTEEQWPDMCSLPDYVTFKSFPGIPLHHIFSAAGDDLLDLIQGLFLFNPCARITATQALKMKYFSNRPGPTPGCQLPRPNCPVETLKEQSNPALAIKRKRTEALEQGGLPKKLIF", "sequence (P51946 whole entry partner, species assumed)": "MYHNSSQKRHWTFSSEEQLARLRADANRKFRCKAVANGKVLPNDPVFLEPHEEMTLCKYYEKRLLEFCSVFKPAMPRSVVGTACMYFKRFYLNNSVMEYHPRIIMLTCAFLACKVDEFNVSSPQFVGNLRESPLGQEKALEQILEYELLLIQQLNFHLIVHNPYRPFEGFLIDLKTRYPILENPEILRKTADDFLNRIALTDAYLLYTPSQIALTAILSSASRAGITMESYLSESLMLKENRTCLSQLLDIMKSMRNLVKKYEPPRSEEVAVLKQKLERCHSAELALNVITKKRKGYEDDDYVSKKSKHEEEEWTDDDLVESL", "sequence (P51948 whole entry partner, species assumed)": "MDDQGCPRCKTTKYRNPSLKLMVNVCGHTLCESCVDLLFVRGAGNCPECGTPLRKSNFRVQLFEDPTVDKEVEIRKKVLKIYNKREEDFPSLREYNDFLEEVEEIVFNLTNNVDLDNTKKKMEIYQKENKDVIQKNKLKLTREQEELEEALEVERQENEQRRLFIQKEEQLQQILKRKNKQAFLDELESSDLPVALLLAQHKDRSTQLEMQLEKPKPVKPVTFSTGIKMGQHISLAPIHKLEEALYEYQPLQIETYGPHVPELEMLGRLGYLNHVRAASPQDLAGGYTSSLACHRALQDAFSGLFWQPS", "assay": "trFRET binding kinome profiling", "description": "as §1"}, "[13]": {"biological_target": "DDR1 (Homo sapiens, UniProt Q08345)", "assay": "trFRET binding kinome profiling", "description": "as §1"}, "[14]": {"biological_target": "Plk3 (Homo sapiens, UniProt Q9H4B4)", "assay": "trFRET binding kinome profiling", "description": "as §1"}, "[15]": {"biological_target": "PKCtheta (Homo sapiens, UniProt Q04759)", "assay": "trFRET binding kinome profiling", "description": "as §1"}, "[16]": {"biological_target": "PDGFRA V561D (Homo sapiens, UniProt P16234, V561D)", "assay": "trFRET binding kinome profiling", "description": "as §1"}, "[17]": {"biological_target": "Aurora 1 (Homo sapiens, UniProt Q96GD4)", "assay": "trFRET binding kinome profiling", "description": "as §1"}, "[18]": {"biological_target": "TrkA (Homo sapiens, UniProt P04629)", "assay": "trFRET binding kinome profiling", "description": "as §1"}, "[19]": {"biological_target": "TBK1 (Homo sapiens, UniProt Q9UHD2)", "sequence (Q9UHD2 whole entry, species assumed)": "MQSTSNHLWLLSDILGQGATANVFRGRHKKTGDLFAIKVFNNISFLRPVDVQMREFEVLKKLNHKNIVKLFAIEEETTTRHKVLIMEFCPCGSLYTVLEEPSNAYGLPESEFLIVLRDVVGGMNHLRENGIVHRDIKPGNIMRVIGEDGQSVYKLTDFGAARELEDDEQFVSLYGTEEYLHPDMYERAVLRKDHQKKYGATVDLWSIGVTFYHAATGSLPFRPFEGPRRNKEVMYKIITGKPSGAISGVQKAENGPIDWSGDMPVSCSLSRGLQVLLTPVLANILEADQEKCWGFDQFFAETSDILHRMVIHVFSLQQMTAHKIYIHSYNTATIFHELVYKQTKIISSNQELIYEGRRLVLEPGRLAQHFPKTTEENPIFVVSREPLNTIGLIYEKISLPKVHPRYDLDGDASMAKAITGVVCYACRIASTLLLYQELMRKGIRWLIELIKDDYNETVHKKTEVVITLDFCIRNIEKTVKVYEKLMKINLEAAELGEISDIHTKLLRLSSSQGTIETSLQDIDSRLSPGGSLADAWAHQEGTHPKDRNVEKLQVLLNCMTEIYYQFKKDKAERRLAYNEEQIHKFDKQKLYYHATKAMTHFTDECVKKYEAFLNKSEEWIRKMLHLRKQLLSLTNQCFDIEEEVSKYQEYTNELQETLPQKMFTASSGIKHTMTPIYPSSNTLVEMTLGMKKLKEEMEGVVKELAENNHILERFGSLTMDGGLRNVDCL", "assay": "trFRET binding kinome profiling", "description": "as §1"}, "[20]": {"biological_target": "Pim1 (Homo sapiens, UniProt P11309)", "assay": "trFRET binding kinome profiling", "description": "as §1"}, "[21]": {"biological_target": "TNK2 (Homo sapiens, UniProt Q07912)", "sequence (Q07912 whole entry, species assumed)": "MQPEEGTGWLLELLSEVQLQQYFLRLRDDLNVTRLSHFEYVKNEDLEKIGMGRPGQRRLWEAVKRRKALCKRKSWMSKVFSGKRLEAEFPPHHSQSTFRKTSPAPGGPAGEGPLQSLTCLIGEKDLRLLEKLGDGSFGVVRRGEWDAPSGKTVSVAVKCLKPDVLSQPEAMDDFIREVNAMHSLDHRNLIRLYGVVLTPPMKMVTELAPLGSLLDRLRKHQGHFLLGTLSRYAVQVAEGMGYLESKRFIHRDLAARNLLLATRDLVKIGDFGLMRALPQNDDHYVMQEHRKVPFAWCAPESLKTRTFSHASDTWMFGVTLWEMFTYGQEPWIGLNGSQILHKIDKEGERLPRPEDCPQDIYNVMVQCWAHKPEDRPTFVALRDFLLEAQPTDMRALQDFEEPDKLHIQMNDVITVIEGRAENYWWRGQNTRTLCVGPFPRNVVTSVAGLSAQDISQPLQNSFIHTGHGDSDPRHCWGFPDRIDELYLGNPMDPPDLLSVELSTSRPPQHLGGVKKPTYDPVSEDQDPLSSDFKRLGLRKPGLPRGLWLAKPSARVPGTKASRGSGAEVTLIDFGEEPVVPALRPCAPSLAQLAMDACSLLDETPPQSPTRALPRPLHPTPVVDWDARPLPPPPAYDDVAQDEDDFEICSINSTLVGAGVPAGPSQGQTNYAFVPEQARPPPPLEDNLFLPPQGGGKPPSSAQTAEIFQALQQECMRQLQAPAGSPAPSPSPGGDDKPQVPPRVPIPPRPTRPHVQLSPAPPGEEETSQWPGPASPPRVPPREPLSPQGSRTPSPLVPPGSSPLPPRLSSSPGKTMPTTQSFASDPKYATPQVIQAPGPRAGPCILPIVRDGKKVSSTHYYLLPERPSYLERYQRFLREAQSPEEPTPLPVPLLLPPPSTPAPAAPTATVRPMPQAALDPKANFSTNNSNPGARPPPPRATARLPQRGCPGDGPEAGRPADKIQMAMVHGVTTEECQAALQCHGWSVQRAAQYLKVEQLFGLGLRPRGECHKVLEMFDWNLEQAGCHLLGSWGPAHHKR", "assay": "trFRET binding kinome profiling", "description": "as §1"}, "[22]": {"biological_target": "CDK9/Cyclin K (Homo sapiens, UniProt P50750)", "assay": "trFRET binding kinome profiling", "description": "as §1"}, "[23]": {"biological_target": "Src (Homo sapiens, UniProt P12931)", "assay": "trFRET binding kinome profiling", "description": "as §1"}, "[24]": {"biological_target": "LCK (Homo sapiens, UniProt P06239)", "assay": "trFRET binding kinome profiling", "description": "as §1"}, "[25]": {"biological_target": "Gsk3b (Homo sapiens, UniProt P49841)", "assay": "trFRET binding kinome profiling", "description": "as §1"}, "[26]": {"biological_target": "Flt1 (Homo sapiens, UniProt P17948)", "assay": "trFRET binding kinome profiling", "description": "as §1"}, "[27]": {"biological_target": "Wee1 (Homo sapiens, UniProt P30291)", "assay": "trFRET binding kinome profiling", "description": "as §1"}, "[28]": {"system": "IL-6 induced pSTAT3, CD3+ whole blood", "assay": "IL-6 signaling in human whole blood, CD3+ T-cell population", "type": "cell-based", "conditions": "JAK 1"}, "[29]": {"biological_target": "JAK1 (Homo sapiens, UniProt P23458)", "assay": "HTRF activity assay, recombinant JAK1 catalytic domain", "conditions": "JAK1 IC50 at varying ATP (0.01-1 mM), Cheng-Prusoff; data not shown"}, "[30]": {"system": "IL-6 induced pSTAT3", "assay": "Clinical ex vivo IL-6 stimulation of whole blood, pSTAT3", "type": "in vivo, healthy volunteers", "description": "Recombinant human IL-6 (400 ng/ml), or IL-7 (400 ng/ml), (R&D Systems, Minneapolis, MN) was added to blood and incubated for 10 min at 37°C. Surface antibodies were added (CD14-APC, CD3-fluorescein isothiocyanate [FITC]; BD Biosciences, San Jose, CA) and incubated on ice for an additional 20 min. Samples were lysed (Lyse/Fix, BD Biosciences, San Jose, CA) and incubated for 10 min at 37°C. Samples were washed and stored at − 70°C. For intracellular staining, samples were thawed, washed, and resuspended in BD Perm buffer III (BD Biosciences, San Jose, CA) on ice for 30 min. Samples were washed and stained with pSTAT5-PE or pSTAT3-PE (BD Biosciences, San Jose, CA) for 60 min at room temperature and then analyzed immediately on a FACSCalibur. Geometric means were determined using FlowJo analysis software."}, "[31]": {"system": "IL-13 induced STAT6 phosphorylation", "assay": "IL-13 induced STAT6 phosphorylation in HEKa", "type": "cell-based", "conditions": "Homo sapiens, JAK 1/TYK2, read-out: Human IC50, IL-13 pSTAT6", "description": "IL-6 and Oncostatin M (OSM) induced STAT3 phosphorylation was assessed in the human erythroleukemia TF-1 cell line. Erythropoietin-induced STAT5 phosphorylation was assessed in the human UT-7 cell line. IL-2 and IL-15 induced STAT5 phosphorylation was assessed in activated human T-cells. Detection of phosphorylated STATs was accomplished with the SureFire pSTAT5 or pSTAT3 Assay kit (Perkin Elmer, Hopkinton, MA) per standard manufacturer’s protocol, with the exception of an overnight incubation following addition of donor beads before detection on the EnVision (Perkin Elmer, Hopkinton, MA). IFNγ induced STAT1 phosphorylation was assessed in the CD14+ monocyte population in human PBMC by flow cytometry. CD14 BV421 was purchased from BD Biosciences (San Jose, CA). STAT1 PE ([…]) was purchased from ThermoFisher Scientific (Waltham, MA). IL-4 and IL-13 induced STAT6 phosphorylation and IL-31 induced STAT3 phosphorylation were assessed in adult human epithelial keratinocytes (HEKa, ThermoFisher Scientific, Waltham, MA) by flow cytometry. STAT6 PE (pY641) and STAT3 PE (Y705) were purchased from BD Biosciences (San Jose, CA)."}}, "data": [{"smiles": "CC[C@@H]1CN(C(=O)NCC(F)(F)F)C[C@@H]1c1cnc2cnc3[nH]ccc3n12", "note": "[upadacitinib, (3S,4R)-3-ethyl-4-(3H-imidazo [1,2-a]pyrrolo [2,3-e]pyrazin-8-yl)-N-(2,2,2-trifluoroethyl) pyrrolidine-1-carboxamide]", "values": [{"measurement": "IC50", "setting": "[1]", "value": "> 10", "unit": "µM"}, {"measurement": "IC50", "setting": "[2]", "value": "> 10", "unit": "µM"}, {"measurement": "IC50", "setting": "[3]", "value": "< 1", "unit": "µM"}, {"measurement": "IC50", "setting": "[4]", "value": "> 10", "unit": "µM"}, {"measurement": "IC50", "setting": "[5]", "value": "> 10", "unit": "µM"}, {"measurement": "IC50", "setting": "[6]", "value": "> 7.9", "unit": "µM"}, {"measurement": "IC50", "setting": "[7]", "value": "> 10", "unit": "µM"}, {"measurement": "IC50", "setting": "[8]", "value": "> 10", "unit": "µM"}, {"measurement": "IC50", "setting": "[9]", "value": "> 10", "unit": "µM"}, {"measurement": "IC50", "setting": "[10]", "value": "> 10", "unit": "µM"}, {"measurement": "IC50", "setting": "[11]", "value": "> 10", "unit": "µM"}, {"measurement": "IC50", "setting": "[12]", "value": "> 10", "unit": "µM"}, {"measurement": "IC50", "setting": "[13]", "value": "> 10", "unit": "µM"}, {"measurement": "IC50", "setting": "[14]", "value": "> 10", "unit": "µM"}, {"measurement": "IC50", "setting": "[15]", "value": 5.1, "unit": "µM"}, {"measurement": "IC50", "setting": "[16]", "value": "> 10", "unit": "µM"}, {"measurement": "IC50", "setting": "[17]", "value": "> 5.5", "unit": "µM"}, {"measurement": "IC50", "setting": "[18]", "value": "> 10", "unit": "µM"}, {"measurement": "IC50", "setting": "[19]", "value": "> 10", "unit": "µM"}, {"measurement": "IC50", "setting": "[20]", "value": "> 10", "unit": "µM"}, {"measurement": "IC50", "setting": "[21]", "value": 5.1, "unit": "µM"}, {"measurement": "IC50", "setting": "[22]", "value": "> 10", "unit": "µM"}, {"measurement": "IC50", "setting": "[23]", "value": "> 10", "unit": "µM"}, {"measurement": "IC50", "setting": "[24]", "value": "> 10", "unit": "µM"}, {"measurement": "IC50", "setting": "[25]", "value": "> 10", "unit": "µM"}, {"measurement": "IC50", "setting": "[26]", "value": "> 10", "unit": "µM"}, {"measurement": "IC50", "setting": "[27]", "value": "> 10", "unit": "µM"}, {"measurement": "IC50", "setting": "[28]", "value": 0.207, "unit": "µM"}, {"measurement": "Mechanism of JAK1 inhibition", "setting": "[29]", "value": "ATP competitive inhibitor"}, {"measurement": "inhibition at 3 mg", "setting": "[30]; Homo sapiens, 1 h", "value": "~50", "unit": "%"}, {"measurement": "Dose reaching maximal pSTAT3 inhibition", "setting": "[30]; healthy volunteers, IL-6 stimulation, 1 h post dose", "value": 36, "unit": "mg"}, {"measurement": "IC50", "setting": "[31]", "value": 0.004, "unit": "µM"}]}]}
